For this experiment, the system named is CEM cells HIV-1 protection, formazan growth assay. Briefly: NCI AIDS Antiviral Assay. The note with it: for IC50: measured here: growth of uninfected CEM cells. The method in brief:
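Protection of CEM cells against HIV-1 measured as cell growth via soluble formazan read-out, with five concentrations tested on both infected and uninfected cells; failure to protect may reflect toxicity.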

The structures appear in SMILES notation. Calls of active or inactive are those of the source.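 How the source made its calls: active means compounds giving half or more protection of infected cells from virus-caused growth loss, again on retest; inactive means the rest.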 Where a SMILES comes first, the peptide text is derived from it. [ ]: non-standard residue; d: D form. The star is where a group is joined. NMeF = CN[CH](Cc1ccccc1)C(=O)O; NMeV = CN[CH](C(=O)O)C(C)C; Boc = CC(C)(C)OC(=O)*; OBn = c1ccc(CO*)cc1; Bn = c1ccc(C*)cc1

Take `O=C(OC1C#CCSCC#C/C=C\1)c1ccc2c(c1)C(=O)c1ccccc1C2=O` (stereo not given): the EC50 – broadly, the concentration needed to bring the measured effect to its halfway point – was more than 200 µM and the IC50 – broadly, the concentration needed to halve the response being measured – came out at 69.2 µM. The corresponding values for `COC(=O)c1ccc(NCc2cc(O)ccc2O)cc1` are more than 200 µM and 11.7 µM. For `CCOC(=O)c1ccc(CSc2ccc(OC)cc2)c([N+](=O)[O-])c1`, the EC50 is more than 102 µM and the IC50 turned out to be 19.1 µM.

As to `C/C=C(/CCC1NCCC2c3ccccc3NC12)[Si](C)(C)C` (stereo not given), the outcome was inactive. As for `Cc1ccc(S(=O)(=O)OCC23CCC(C4CC42)C2CC23)cc1` (stereo not given), the EC50 is more than 100 µM and the IC50 was 77.6 µM. Regarding `N#CC1=C(c2ccccc2)OC2(N)OC(c3ccccc3)=C(C#N)C12C#N` (stereo not given), the result was inactive. For `O=C1C2CN(Cc3ccccc3)CC1CN(Cc1ccccc1)C2`, the EC50 is more than 214 µM and the IC50 was 141 µM.

Regarding `Cc1onc(-c2c(F)cccc2Cl)c1C(=O)Nc1cc2cc([N+](=O)[O-])ccc2oc1=O`, the EC50 was more than 50.1 µM and the IC50 is more than 50.1 µM. Take `CC(C)CCCC(C)[C@H]1CC[C@H]2[C@@H]3CC[C@H]4C[C@@H](CCC=C(c5cc(Cl)c(O)c(C(=O)O)c5)c5cc(Cl)c(O)c(C(=O)O)c5)CC[C@]4(C)[C@H]3CC[C@]12C` (stereo not given in full) (tested in a mixture with another compound): the EC50 was more than 100 µM and the IC50 was determined as 40.7 µM. As for `CCC[CH2][Sn]1([CH2]CCC)[O]CC(CN2CCCCC2)[O]1` (stereo not given), the EC50 is more than 9.33 µM and the IC50 is 0.0646 µM. For `COc1ccc(Cc2nc3ccccc3[nH]2)cc1OC` the same measures were more than 200 µM and 89.1 µM. For `Clc1ccccc1OCc1nc2ccccc2[nH]1` the same measures were more than 200 µM and more than 200 µM.

Take `Cc1nc(-n2nc(-c3ccccc3)cc2-c2ccccc2)sc1C(=O)CC(=O)C(=O)Nc1ccc(O)cc1`: the EC50 is more than 347 µM and the IC50 was more than 347 µM.

Consider `CC(C)(C)OC/C=C1\C(=O)O[C@H]2C[C@@H](O[Si](C)(C)C(C)(C)C)C[C@@H]12`, for which the EC50 was more than 200 µM and the IC50 was 39.8 µM. As to `CC(C)C(N=C1CC2CCC1(C(=O)Nc1ccccc1O)C2(C)C)c1ccccc1` (stereo not given), the EC50 is 20 µM and the IC50 amounted to 32.4 µM. For `S=C(NC1CCCCC1)SSSSC(=S)NC1CCCCC1` the same measures were more than 91.2 µM and 33.1 µM. For `CC(C)CC(NC(=O)C(CCC(=O)OCc1ccccc1)NC(=O)OC(C)(C)C)C(=O)NC(COCc1ccccc1)C(=O)NC(Cc1ccccc1)C(=O)O` (stereo not given) (Boc-E(OBn)LS(Bn)F-OH; configuration not given here) the same measures were more than 200 µM and more than 200 µM. For the compound `CC(NP(=O)(c1ccccc1)c1ccccc1)c1ccccc1` (stereo not given), the EC50 is more than 200 µM and the IC50 is more than 200 µM. Regarding `N#C/C(=C/C=C/c1ccco1)C(N)=O`, the EC50 was more than 200 µM and the IC50 is more than 200 µM. `O=S(=O)(CCCCl)SCCCCl`: the EC50 was more than 145 µM and the IC50 was 20 µM.

For the compound `CNC(=O)c1ccccc1[Se][Se]c1ccccc1C(=O)NC`, the EC50 was 3.55 µM and the IC50 is 11 µM. As for `O=C1c2cc(Cl)ccc2OC2CCON12` (stereo not given), the EC50 is more than 200 µM and the IC50 is more than 200 µM.

Consider `NCCCN1CCN(CC(=O)O)CCN(CCCN)CCN(CC(=O)O)CC1`, for which the EC50 was more than 200 µM and the IC50 was 4.37 µM.

Turning to `CC1OC(n2cc(C(F)(F)F)c(=O)[nH]c2=O)C=CC1=O` (stereo not given), the EC50 was more than 447 µM and the IC50 is 3.39 µM. For `CC(C)C(NC(=O)OC(C)(C)C)C(=O)N(C)C(Cc1ccccc1)C(=O)N(C)C(C(=O)N(C)C(C(=O)O)C(C)C)C(C)C` (stereo not given) (Boc-V[NMeF][NMeV][NMeV]-OH; configuration not given here) the same measures were more than 200 µM and more than 200 µM. Turning to `CC(=O)Oc1c(Br)ccc2cc(C(Br)Br)c(C(=O)c3ccccc3)nc12`, the EC50 is more than 5.01 µM and the IC50 was more than 5.01 µM.

On to `CN(/N=C/c1ccc(Cl)c(Cl)c1)C1=NCCCCN1`, for which the EC50 is more than 200 µM and the 50% inhibitory concentration (IC50) turned out to be 26.3 µM. For `COc1cc(Cc2ccc3c(c2C#N)N(C)c2ccccc2S3)cc(OC)c1OC` the same measures were more than 200 µM and 3.63 µM. Regarding `O=C1N[C@H]2CS(=O)(=O)C[C@H]2N1`, the EC50 is more than 200 µM and the IC50 is more than 200 µM. Regarding `O=[N+]([O-])c1cccc(-c2cn3c(n2)Cc2ccccc2C3)c1`, the EC50 is more than 200 µM and the IC50 was 33.9 µM. For `CC(C)CCc1n[nH]c(=O)n1/N=C\c1ccccc1` the same measures were more than 200 µM and 66.1 µM.

In the case of `COc1ccc(C(=O)CC(=O)C(=O)Nc2ccc(C)c(C)c2)cc1`, the EC50 is more than 22.4 µM and the IC50 was more than 22.4 µM. As for `O=C(NCCCN1CC2CCCC2C1)C(c1ccccc1)c1ccccc1` (stereo not given), the EC50 was more than 200 µM and the IC50 was found to be 39.8 µM. Regarding `CSCc1nc2ccccc2c(C)[n+]1[O-]`, the EC50 is more than 200 µM and the IC50 is more than 200 µM. On to `O=C(CSC1=NNC2(C(=O)N1)c1ccccc1-c1ccccc12)NC(=S)Nc1ccccc1`, for which the EC50 is more than 200 µM and the IC50 is 25.7 µM. Turning to `NC1CC(=O)c2sc(I)cc21` (stereo not given), the EC50 is more than 200 µM and the IC50 was determined as 102 µM.

As for `O=C(Nc1ccc(Cl)c(Cl)c1)C(=O)C(C(=O)c1ccccc1F)C1OC(=O)c2ccccc21` (stereo not given), the EC50 is more than 195 µM and the IC50 is 14.1 µM.

For the compound `C=CCC12CC(OC)C(O)CC1(O)OC(c1cc(OC)c(OC)c(OC)c1)C2C` (stereo not given), the EC50 was more than 200 µM and the IC50 is more than 200 µM. Regarding `O=C1CCCCCCCCCCCC(=O)OCCO1`, the EC50 is more than 132 µM and the IC50 was more than 132 µM. As for `N#CC(/C(=N\NC(N)=S)C(=O)NC1C2CC3CC(C2)CC1C3)c1ccc(Cl)cc1` (stereo not given), the EC50 is more than 17 µM and the 50% inhibitory concentration (IC50) is more than 17 µM. `CC1CC2=C(C(=O)O1)C(c1ccccc1)Nc1ccccc1N2` (stereo not given): the EC50 was more than 427 µM and the IC50 amounted to 81.3 µM. `O=C1CCCC[C@H]1C(O)CC1CC(=O)N(c2ccccc2)C(=O)C1` (stereo not given in full): the EC50 was more than 200 µM and the IC50 is more than 200 µM.

Turning to `Cc1cc2c(=O)cc(-c3ccccc3Cl)oc2c(C(=O)O)c1C`, the EC50 was more than 200 µM and the IC50 is more than 200 µM. On to `O=C(c1ccccc1)N1C2CCC1C(C(F)(F)F)=C2C(F)(F)F`, for which the result was inactive.

As for `CC(C)(c1ccsc1)c1sccc1C(=O)O`, the EC50 is more than 200 µM and the IC50 was more than 200 µM. Turning to `CC(CO)(CO)N1C(=O)C2C3c4ccccc4C(c4ccccc43)C2C1=O` (stereo not given), the EC50 was more than 200 µM and the half-inhibitory concentration (IC50) was more than 200 µM. As to `O=C1/C(=C/c2cccc(Br)c2)CSC/C1=C\c1cccc(Br)c1`, the EC50 is more than 200 µM and the 50% inhibitory concentration (IC50) stood at 2.88 µM. For `OC12c3ccccc3C1(N1CCOCC1)CCCCC21OCCCO1` (stereo not given) the same measures were 170 µM and 295 µM. For the compound `S=C1Cc2c(-c3ccccc3)cc(-c3ccc(Cl)cc3)nc2-c2ccccc2N1`, the EC50 is more than 200 µM and the IC50 is 3.39 µM.

On to `c1cc2c(cc1[C@@H]1OC[C@@H]3[C@H]1CO[C@H]3c1ccc3c(c1)OCO3)OCO2`, for which the EC50 is more than 200 µM and the IC50 stood at 79.4 µM. For the compound `O=C1CC2COc3ccc(O)cc3C2=NN1c1ccccc1` (stereo not given), the EC50 was more than 324 µM and the IC50 stood at 110 µM. For `O=C(CSc1nnc(CSc2ccc(Cl)cc2)n1-c1ccccc1)NC(=O)Nc1ccccc1` the same measures were more than 182 µM and 115 µM. For `CCOc1ccc(N=NC2C(=O)N(C(=O)CC(=O)Nc3ccc(C)cc3)N=C2C)cc1` (stereo not given) the same measures were more than 200 µM and 10.5 µM. With `COC(=O)/C(C#N)=C1\N=NNN1c1ccc(OC)cc1`, the outcome was inactive. `CCCCCC(/C=N/N)C(O)(C(F)(F)F)C(F)(F)F` (stereo not given): the EC50 was more than 200 µM and the IC50 worked out at 1.48 µM.

For the compound `CCn1cc(C(=O)O)c(=O)c2cc3c(cc21)S(=O)(=O)CC3`, the EC50 is more than 200 µM and the IC50 is more than 200 µM.

As to `CN1C2CC(=O)CC1[C@H](O)[C@@H]2O`, the EC50 was more than 200 µM and the IC50 was more than 200 µM.

With `CC(C)(C)OC(=O)[N+](=N)C(=O)C1CCC(=O)N1C(=O)OCc1ccccc1` (stereo not given), the EC50 was more than 200 µM and the IC50 was more than 200 µM. As to `CCN(CC)CCNC(=O)c1nn(-c2ccc(C)cc2)c2c1N(C)S(=O)(=O)c1ccccc1-2`, the EC50 was more than 77.6 µM and the IC50 turned out to be 56.2 µM.

For `NNc1nnc(-c2nnc(NN)o2)o1`, the EC50 is more than 200 µM and the IC50 is more than 200 µM.

On to `Cc1ccc(S(=O)(=O)OCC2OC(CCCO)C/C([Si](C)(C)C)=C\CC2Cl)cc1` (stereo not given), for which the EC50 was more than 8.13 µM and the IC50 is more than 8.13 µM. On to `Nc1nc2c(=O)c3ccccc3sc2s1`, for which the result was inactive.

Regarding `O=C1C/C(=C\c2ccccc2)C(=O)c2ccccc2N1`, the EC50 is more than 200 µM and the IC50 worked out at 12.6 µM. For `CCOC(=O)NC(=O)c1cn(CCCCCCOC(=O)NCCCCCCNC(=O)OCCCCCCn2cc(C(=O)NC(=O)OCC)c(=O)[nH]c2=O)c(=O)[nH]c1=O`, the result was inactive. `O=C1OCCN1c1ccccc1`: the EC50 was more than 1100 µM and the IC50 is more than 1100 µM. For the compound `O=C(c1cc(=O)c2ccc(O)cc2o1)c1ccc(Cl)cc1Cl`, the EC50 was more than 204 µM and the concentration for half-maximal inhibition (IC50) came to 18.6 µM. With `C[N+]12C=CC=C1C(N1CCCC1)c1scc(-c3ccc(F)cc3)c12` (stereo not given), the EC50 was more than 200 µM and the IC50 turned out to be 24.5 µM. As to `O=c1oc2cc(O)ccc2c2[nH]c3cc(O)ccc3c12`, the EC50 was more than 97.7 µM and the IC50 is 17 µM. With `O=C(NNc1ccccc1)C(O)C(O)C(O)C(O)C(O)CO` (stereo not given), the result was inactive. As to `O=C(N/S(=N/S(=O)(=O)c1ccc(Br)cc1)C(Cl)(Cl)Cl)c1ccccc1` (stereo not given), the EC50 was more than 200 µM and the IC50 is more than 200 µM. Consider `CCCCCCCCCCCCCCCC(=O)OC1C(O)C(CO)OC(OC)C1NC(=O)N(CCCl)N=O` (stereo not given), for which the EC50 is more than 12.6 µM and the IC50 was more than 12.6 µM.

These data come from PubChem BioAssay AID179 (DTP/NCI, 2004).
